# Measurements as given in patent US20240019418A1, “RECEPTORS FOR CYCLIC DINUCLEOTIDES AND METHODS FOR SCREENING AGONISTS OR INHIBITORS THEREOF” (GUANGZHOU WINKEY TECHNOLOGY CO., LTD., priority 2017, published 2024).
# Target: T1, subtype M of human STING (Homo sapiens, UniProt Q86WV6)
# T1 construct: expressed in transfected cells
# Assay: type 1 interferon promoter luciferase reporter in HEK293T cell lines stably expressing subtype M of human STING
# Type: cell-based
# Parameters: dose or concentration left out as unconfirmed
# Details: c-di-AMP final concentration in complete medium, 16 hour
# Procedure: After two weeks, drug resistance strains occurred.
# Incubate for 20 min at room temperature. […] After 24 hours, the supernatants were removed.
# T1 sequence (Q86WV6 120-379): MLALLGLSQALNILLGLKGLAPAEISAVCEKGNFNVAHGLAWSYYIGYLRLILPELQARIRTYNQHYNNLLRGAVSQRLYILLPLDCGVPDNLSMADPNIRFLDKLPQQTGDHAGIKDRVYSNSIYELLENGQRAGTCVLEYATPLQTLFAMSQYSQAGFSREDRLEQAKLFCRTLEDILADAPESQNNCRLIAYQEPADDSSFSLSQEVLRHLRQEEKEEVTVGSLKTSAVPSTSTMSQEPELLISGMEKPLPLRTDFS
smiles,measurement,value
Nc1ncnc2c1ncn2[C@@H]1O[C@@H]2COP(=O)(O)O[C@H]3[C@@H](O)[C@H](n4cnc5c(N)ncnc54)O[C@@H]3COP(=O)(O)O[C@H]2[C@H]1O [c-di-AMP],luciferase activity compared with control group in which only transfection was performed,significantly increased
